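In this assay, cells in 96-well plates receive the compound at five concentrations for 48 hours. Endpoints are linearly interpolated between the surrounding concentrations. Abbreviation: GI50, concentration required for 50% inhibition of growth.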 The source made the active and inactive calls. Rule as the data show it: active = GI50 up to about 1.1 µM and inactive = higher.
How the values were obtained:
Assay in all cases: NCI-60 cell line screen, 48 h
UACC-257 = tested on: UACC-257
SR = tested on: SR
TK-10 = tested on: TK-10
MCF7 = tested on: MCF7
HOP-62 = tested on: HOP-62
HOP-92 = tested on: HOP-92
SK-OV-3 = tested on: SK-OV-3
K562 = tested on: K562
BT-549 = tested on: BT-549
OVCAR-3 = tested on: OVCAR-3
CCRF-CEM = tested on: CCRF-CEM
ACHN = tested on: ACHN
U-251 = tested on: U-251
NCI-H23 = tested on: NCI-H23
OVCAR-4 = tested on: OVCAR-4
SF-295 = tested on: SF-295
DU-145 = tested on: DU-145
HCC 2998 = tested on: HCC 2998
MDA-N = tested on: MDA-N

SMILES	GI50 (UACC-257)	GI50 (SR)	GI50 (TK-10)	GI50 (MCF7)	GI50 (HOP-62)	GI50 (HOP-92)	GI50 (SK-OV-3)	GI50 (K562)	GI50 (BT-549)	GI50 (OVCAR-3)	GI50 (CCRF-CEM)	GI50 (ACHN)	GI50 (U-251)	GI50 (NCI-H23)	GI50 (OVCAR-4)	GI50 (SF-295)	GI50 (DU-145)	GI50 (HCC 2998)	GI50 (MDA-N)
N#Cc1c(N)n(C2OC(CO)C(O)C2O)c2ncnc(N)c12 (stereo not given)	0.091 µM (active)	0.0147 µM (active)	0.0211 µM (active)	0.0168 µM (active)	0.0335 µM (active)	0.136 µM (active)	0.0649 µM (active)	0.048 µM (active)	0.152 µM (active)	0.029 µM (active)	0.025 µM (active)	0.0312 µM (active)	0.114 µM (active)	0.0292 µM (active)	0.049 µM (active)	0.0711 µM (active)	0.112 µM (active)	–	–
COc1ccc(C[C@@H]2CN(C(=O)c3ccccc3)[C@H](Cc3ccc(O)cc3)CN2C(=O)c2ccccc2)cc1Br	> 100 µM (inactive)	88.3 µM (inactive)	> 100 µM (inactive)	> 100 µM (inactive)	> 100 µM (inactive)	> 100 µM (inactive)	> 100 µM (inactive)	> 100 µM (inactive)	> 100 µM (inactive)	> 100 µM (inactive)	> 100 µM (inactive)	> 100 µM (inactive)	–	> 100 µM (inactive)	> 100 µM (inactive)	> 100 µM (inactive)	> 100 µM (inactive)	> 100 µM (inactive)	–
CCOP(=O)(OCC)c1cc2cc(O)ccc2oc1=O	> 100 µM (inactive)	> 100 µM (inactive)	> 100 µM (inactive)	> 100 µM (inactive)	> 100 µM (inactive)	> 100 µM (inactive)	> 100 µM (inactive)	> 100 µM (inactive)	–	> 100 µM (inactive)	> 100 µM (inactive)	> 100 µM (inactive)	> 100 µM (inactive)	> 100 µM (inactive)	> 100 µM (inactive)	> 100 µM (inactive)	> 100 µM (inactive)	> 100 µM (inactive)	> 100 µM (inactive)
C=CC(C)(C)C(=C)C(=O)N(C)c1ccccc1I	> 100 µM (inactive)	> 100 µM (inactive)	> 100 µM (inactive)	> 100 µM (inactive)	> 100 µM (inactive)	> 100 µM (inactive)	> 100 µM (inactive)	> 100 µM (inactive)	–	> 100 µM (inactive)	> 100 µM (inactive)	> 100 µM (inactive)	> 100 µM (inactive)	84.1 µM (inactive)	48.3 µM (inactive)	> 100 µM (inactive)	> 100 µM (inactive)	> 100 µM (inactive)	> 100 µM (inactive)
Cc1cc2c3c([nH]c2c2ccnc(C)c12)CCCC3	1.81 µM (inactive)	1.93 µM (inactive)	2.33 µM (inactive)	1.43 µM (inactive)	1.79 µM (inactive)	2.6 µM (inactive)	1.85 µM (inactive)	2.07 µM (inactive)	–	2.14 µM (inactive)	2.5 µM (inactive)	4.1 µM (inactive)	1.88 µM (inactive)	2.86 µM (inactive)	2.24 µM (inactive)	2.12 µM (inactive)	3.23 µM (inactive)	1.95 µM (inactive)	1.78 µM (inactive)
O=C(CC(=O)N1N=C(N(c2ccccc2)c2ccccc2)CC1c1ccccc1)Nc1cccc(Cl)c1 (stereo not given)	> 100 µM (inactive)	> 100 µM (inactive)	> 100 µM (inactive)	> 100 µM (inactive)	> 100 µM (inactive)	> 100 µM (inactive)	> 100 µM (inactive)	> 100 µM (inactive)	> 100 µM (inactive)	> 100 µM (inactive)	> 100 µM (inactive)	> 100 µM (inactive)	> 100 µM (inactive)	> 100 µM (inactive)	> 100 µM (inactive)	> 100 µM (inactive)	> 100 µM (inactive)	> 100 µM (inactive)	–
C[n+]1c2ccccc2c(N=[N+]=[N-])c2ccccc21	> 10 µM (inactive)	4.13 µM (inactive)	6.97 µM (inactive)	6.95 µM (inactive)	> 10 µM (inactive)	–	> 10 µM (inactive)	5.82 µM (inactive)	> 10 µM (inactive)	> 10 µM (inactive)	3.33 µM (inactive)	4.13 µM (inactive)	9.93 µM (inactive)	4.22 µM (inactive)	4.26 µM (inactive)	> 10 µM (inactive)	> 10 µM (inactive)	> 10 µM (inactive)	–
O=C1c2c(ccc3c2CCCC3)CC12Cc1ccc3c(c1C2=O)CCCC3	> 100 µM (inactive)	> 100 µM (inactive)	> 100 µM (inactive)	> 100 µM (inactive)	> 100 µM (inactive)	60.7 µM (inactive)	> 100 µM (inactive)	> 100 µM (inactive)	–	> 100 µM (inactive)	> 100 µM (inactive)	> 100 µM (inactive)	56.9 µM (inactive)	> 100 µM (inactive)	> 100 µM (inactive)	> 100 µM (inactive)	> 100 µM (inactive)	> 100 µM (inactive)	> 100 µM (inactive)
CCC1=C(c2ccc(OC)cc2)CC[C@@]2(CCNC2=O)[C@@H]1C	28.2 µM (inactive)	24.7 µM (inactive)	> 100 µM (inactive)	70.8 µM (inactive)	> 100 µM (inactive)	> 100 µM (inactive)	> 100 µM (inactive)	26.5 µM (inactive)	–	> 100 µM (inactive)	57.7 µM (inactive)	> 89.7 µM (inactive)	> 100 µM (inactive)	> 43.2 µM (inactive)	> 100 µM (inactive)	> 55.2 µM (inactive)	> 100 µM (inactive)	> 100 µM (inactive)	> 93.1 µM (inactive)
COc1cc2c3c(c1OC)C(=O)C(=O)C1=C3N(CCC1)CC2	28.6 µM (inactive)	18.5 µM (inactive)	70 µM (inactive)	14.9 µM (inactive)	30.5 µM (inactive)	19.4 µM (inactive)	–	5.7 µM (inactive)	21.8 µM (inactive)	23.6 µM (inactive)	20.3 µM (inactive)	42.1 µM (inactive)	15.5 µM (inactive)	20.6 µM (inactive)	24.2 µM (inactive)	23.5 µM (inactive)	38 µM (inactive)	36.7 µM (inactive)	–
COc1ccc(CCCCl)c(C2=NCCc3ccccc32)c1	34.7 µM (inactive)	28.1 µM (inactive)	> 100 µM (inactive)	38.2 µM (inactive)	33.4 µM (inactive)	71.1 µM (inactive)	> 100 µM (inactive)	14.6 µM (inactive)	33.3 µM (inactive)	56.5 µM (inactive)	53.6 µM (inactive)	> 100 µM (inactive)	9.75 µM (inactive)	11.1 µM (inactive)	45.1 µM (inactive)	32.8 µM (inactive)	> 100 µM (inactive)	23.4 µM (inactive)	–
CCOc1ccc(NCc2cc(OC)c(OC)c(OC)c2)cc1	19.7 µM (inactive)	0.288 µM (active)	–	0.455 µM (active)	0.675 µM (active)	6.04 µM (inactive)	1.17 µM (inactive)	0.269 µM (active)	0.125 µM (active)	0.388 µM (active)	–	6.15 µM (inactive)	0.536 µM (active)	1.96 µM (inactive)	40.1 µM (inactive)	0.417 µM (active)	3.15 µM (inactive)	0.9 µM (active)	–

Source: ChEMBL document CHEMBL1201862, “PubChem BioAssay data set” (2004)
